Molecular target: Human immunodeficiency virus type 1 protease (Human immunodeficiency virus 1, UniProt Q72874)
Assay: The compound was tested for its inhibition against HIV-1 protease

In the case of `COc1ccc(S(=O)(=O)N(CC2CCCC2)C[C@@H](O)CN2C(=O)C3(CCCCC3)OC[C@@H]2Cc2ccccc2)cc1`, the Ki is reported as 1.7 nM.

In the case of `O=C(N[C@H]1c2ccccc2C[C@H]1O)[C@H](Cc1ccccc1)C[C@H](O)CN1C(=O)C2(CCCCC2)C[C@@H]1Cc1ccccc1`, the Ki is reported as 50 nM.

In the case of `NC(C(=O)[C@H](Cc1ccccc1)C[C@H](O)CN1C(=O)[C@@H](Cc2ccccc2)C[C@@H]1Cc1ccccc1)[C@H]1c2ccccc2C[C@H]1O` (stereo partly specified), the Ki is reported as 0.05 nM.

Work on `COc1ccc(S(=O)(=O)N(CC2CCCC2)C[C@@H](O)CN2C(=O)[C@@H](Cc3ccccc3)C[C@@H]2Cc2ccccc2)cc1` yielded a Ki of 0.8 nM.

`O=C(N[C@H]1c2ccccc2C[C@H]1O)[C@H](Cc1ccccc1)C[C@H](O)CN1C(=O)C2(CCOCC2)C[C@@H]1Cc1ccccc1` gave a Ki of 23 nM.

With `O=C(N[C@H]1c2ccccc2C[C@H]1O)[C@H](Cc1ccccc1)C[C@H](O)CN1C(=O)C2(CCN(Cc3ccccc3)CC2)C[C@@H]1Cc1ccccc1` the Ki was 2500 nM.

From ChEMBL document CHEMBL1134987, “Novel spirocyclic pyrrolidones as P2/P1 mimetics in potent inhibitors of HIV-1 protease” (Bioorg Med Chem Lett, 2002)
